Source: patent publication US20080070859A1, “Compounds resistant to metabolic deactivation and methods of use” (priority 2002, published 2008)

How the values were obtained:
CEM/Cl = experiment: MTT assay of cell viability, CEM/Cl; assay type: cell-based; conditions: 5 days at 37 C
Protocol: (§1) The in vitro cytotoxicities of thioaminal prodrugs of Cordycepin were compared to the parent drug Cordycepin using a standard MTT assay of cell viability (Hansen et al. (1989) J. Immunol. Meth. 119:203-10). Leukemia cell lines growing in the exponential phase (MOLT, […], and CEM/Cl) were plated at a final concentration of 1×10^5 cells/ml and exposed to serial dilutions of the Cordycepin prodrugs. In a subset of the experiments (denoted by “+”), the cells were preincubated with 1 μM of the ADA inhibitor 2′-deoxycoformycin for 30 minutes prior to addition of prodrug. Cell viability was determined after incubation for 5 days at 37 C by addition of 3-(4,5-dimethylthizaol-2-yl)-2,5-diplenyl-tetrazolium dye. IC50 was defined as the drug concentration that reduced cell viability 50% in comparison with the appropriate control.

[1] = HPLC stability analysis: hydrolysis of the prodrug to Cordycepin in phosphate buffer; assay type: physicochemical; conditions: 0.63 mM in 30 mM phosphate buffer (pH 7.3) containing 5% DMSO, 37 C; for half-life at 0.63 mM: read-out: t½ (time point at which half of the Cordycepin prodrug was hydrolysed to Cordycepin) (converted)
Protocol: To analyze the half-life of thioaminal prodrugs, HPLC stability analysis was performed on the following Cordycepin prodrugs. Solutions (0.63 mM) of each of the following compounds was prepared in 30 mM phosphate buffer (pH 7.3) containing 5% DMSO and incubated at 37 C.

HL-60 = experiment: MTT assay of cell viability, HL-60; assay type: cell-based; conditions: 5 days at 37 C
Protocol: as §1

[2] = test system: Leukemia cell lines (MOLT, HL-69, and CEM/Cl); experiment: MTT assay of cell viability, overall comparison with Cordycepin; assay type: cell-based; conditions: both in the presence and absence of ADA inhibitor
Protocol: as §1

[3] = test system: Leukemia cell lines (MOLT, and CEM/Cl); experiment: as above; assay type: cell-based; conditions: absence vs presence of ADA inhibitor 2′-deoxycoformycin
Protocol: as §1

MOLT = experiment: MTT assay of cell viability, MOLT; assay type: cell-based; conditions: 5 days at 37 C
Protocol: as §1

[4] = + (preincubated with 1 μM 2′-deoxycoformycin for 30 minutes)
[5] = HL-60, + (preincubated with 1 μM 2′-deoxycoformycin for 30 minutes)
[6] = Homo sapiens, 120 h, HL-60, − (no ADA inhibitor)

Compound: 6-N-(4-N-acetylbenzylthio)methyl-Cordycepin [8b]
- IC50 (CEM/Cl; [4]): 3 µM
- IC50 (CEM/Cl; − (no ADA inhibitor)): 15 µM

Compound: CCSCNc1ncnc2c1ncn2[C@@H]1O[C@H](CO)C[C@H]1O [1b, 6-N-(Ethanethio)methyl-Cordycepin]
- t½ (time point at which half of the Cordycepin prodrug was hydrolysed to Cordycepin) [1]: >72 h

Compound: OCCSCNc1ncnc2c1ncn2[C@@H]1O[C@H](CO)C[C@H]1O [2b, 6-N-(2-hydroxyethanethio)methyl-Cordycepin]
- t½ (time point at which half of the Cordycepin prodrug was hydrolysed to Cordycepin) [1]: >72 h

Compound: OC[C@@H]1C[C@@H](O)[C@H](n2cnc3c(NCSc4ccccc4)ncnc32)O1 [3b, 6-N-(phenylthiol)methyl-Cordycepin]
- IC50 (HL-60; [5]): 7 µM
- IC50 (HL-60; [6]): 24 µM
- cytotoxic potency compared to Cordycepin [2]: more potent cytotoxic agents than Cordycepin
- attenuation of activity in the absence of ADA inhibitor [3]: not significantly attenuated
- IC50 (CEM/Cl; 120 h, − (no ADA inhibitor)): 5.5 µM
- IC50 (CEM/Cl; [4]): 2 µM
- half-life at 0.63 mM [1]: 15 h
- IC50 (MOLT; 120 h, − (no ADA inhibitor)): 18 µM
- IC50 (MOLT; [4]): 16 µM

Compound: Cc1ccc(SCNc2ncnc3c2ncn3[C@@H]2O[C@H](CO)C[C@H]2O)cc1 [4b]
- IC50 (HL-60; [5]): 17 µM
- IC50 (HL-60; [6]): 50 µM
- cytotoxic potency compared to Cordycepin [2]: more potent cytotoxic agents than Cordycepin
- IC50 (CEM/Cl; 120 h, − (no ADA inhibitor)): 24 µM
- IC50 (CEM/Cl; [4]): 5 µM
- IC50 (MOLT; 120 h, − (no ADA inhibitor)): 35 µM
- IC50 (MOLT; [4]): 30 µM

Compound: COc1ccc(SCNc2ncnc3c2ncn3[C@@H]2O[C@H](CO)C[C@H]2O)cc1 [5b, 6-N-(4-methoxybenzothio)methyl-Cordycepin]
- cytotoxic potency compared to Cordycepin [2]: more potent cytotoxic agents than Cordycepin
- IC50 (CEM/Cl; 120 h, − (no ADA inhibitor)): 15 µM
- IC50 (CEM/Cl; [4]): 3 µM
- half-life at 0.63 mM [1]: 17 h

Compound: O=[N+]([O-])c1ccc(CSCNc2ncnc3c2ncn3[C@@H]2O[C@H](CO)C[C@H]2O)cc1 [7b, 6-N-(4-nitrobenzylthio)methyl-Cordycepin]
- t½ (time point at which half of the Cordycepin prodrug was hydrolysed to Cordycepin) [1]: 1 h

Compound: Nc1ncnc2c1ncn2[C@@H]1O[C@H](CO)C[C@H]1O [Cordycepin, 3′-deoxyadenosine, reference compound]
- IC50 (HL-60; [5]): 9 µM
- IC50 (HL-60; [6]): 42 µM
- IC50 (CEM/Cl; 120 h, − (no ADA inhibitor)): 27 µM
- IC50 (CEM/Cl; [4]): 2 µM
- IC50 (MOLT; 120 h, − (no ADA inhibitor)): 80 µM
- IC50 (MOLT; [4]): 21 µM
